{"source": "patent US20060292158A1", "about": "“Method for the treatment of cancer using a novel pharmaceutical composition containing at least one dolastatin 10 derivative” (priority 2004, published 2006)", "tested_on": "MAXF-401 human breast carcinoma xenograft", "assay": "Antitumor activity in MAXF-401 subcutaneous xenograft in athymic nude mice, combination with capecitabine (Example 3)", "format": "in vivo", "settings": "monotherapy 3, 4 or 6 mg/kg; one week after final injection; 2.5% DMSO control", "description": "The MAXF-401 human breast carcinoma cell line was obtained from Prof Fiebig (University of Freiburg, Germany). This cell line was maintained in mice; the tumor fragments were implanted subcutaneously and serially passaged in mice prior to use.\nOne hundred (100) 5-week-old female athymic nude mice (BALB/c nu/nu) were purchased from Charles River Japan, Inc. (Yokohama, Japan). The mice were housed in an air-conditioned room (temperature 22±2° C., relative humidity 55±10%) under 12 h light/dark cycles. The mice were given sterilized CE-2 and tap water with 25μg/mL gentamycin ad libitum. […]\nThe in vivo evaluation procedure for anticancer drugs was based on the methods described by Plowman, et al. (1997) for xenograft models. […] The tumor volume and body weight of each mouse were measured twice a week. […] One week after the final injection, tumor growth inhibition (TGI) was calculated using the formula (1-T/C)×100 (%), where T (treated group) and C (control group) represent the mean tumor volume change. ED50 values were calculated from values of tumor growth inhibition on day 21 using the XL fit program. […]\nPackaged software (SAS preclinical package version 5.0,SAS Institute Japan, Ltd.) was used for the statistical analysis. […] ED50s were calculated from values of tumor growth inhibition percentage using XL fit program #509 (MS Excel Add Version 3.0.5 Build -In: XLfit3 12, ID Business Solutions Ltd.)", "data": [{"compound": "CC[C@H](C)[C@@H]([C@@H](CC(=O)N1CCC[C@H]1[C@H](SC)[C@@H](C)C(=O)N(C)CCc1cccc(O)c1)OC)N(C)C(=O)[C@@H](NC(=O)[C@H](C(C)C)N(C)C)C(C)C", "note": "[compound of formula (I-A), N-[1-({1-sec-Butyl-4-[2-(2-{[2-(3-hydroxy-phenyl)-ethyl]-methyl-carbamoyl}-1-methylsulfanyl-propyl)-pyrrolidin-1-yl]-2-methoxy-4-oxo-butyl}-methyl-carbamoyl)-2-methyl-propyl]-2-dimethylamino-3-methyl-butyramide]", "values": [{"measurement": "volume of tumor in comparison with control", "value": "decreased significantly"}]}]}
